This is an account of results in patent publication US8440658B2, “Cyclic urea inhibitors of 11β-hydroxysteroid dehydrogenase 1” (Vitae Pharmaceuticals, Inc., priority 2007, dated 2013).

In the test the target is T1, human 11β-HSD1 (Homo sapiens, UniProt P28845).
T1 construct: expressed in transfected cells; host or cells: CHO cells (microsomes)
In words: Inhibition of microsomal preparation of 11β-HSD1 (SPA, [3H]cortisone to [3H]cortisol). The format is biochemical. The settings on record: for Average % inhibition at 100 nM / inhibition at 0.1 µM: compound at 100 nM; for IC50: microsomes from CHO cells overexpressing human 11β-HSD1, 160 nM [3H]cortisone, read-out: Biological Test Example 1 (IC50 class). As to the method: The inhibition of microsomal preparation of 11β-HSD1 by compounds of the invention was measured essentially as previously described (K. Solly, S. S. Mundt, H. J. Zokian, G. J. Ding, A. Hermanowski-Vosatka, B. Strulovici, and W. Zheng, High-Throughput Screening of 11-Beta-Hydroxysteroid Dehydrogenase Type 1 in Scintillation Proximity Assay Format. Assay Drug Dev Technol 3 (2005) 377-384). All reactions were carried out at room temperature in 96 well clear flexible PET Microbeta plates (PerkinElmer). The assay begins by dispensing 49 μl of substrate solution (50 mM HEPES, pH 7.4, 100 mM KCl, 5 mM NaCl, 2 mM MgCl2, 2 mM NADPH and 160 nM [^3H]cortisone (1 Ci/mmol)) and mixing in 1 μL of the test compounds in DMSO previously diluted in half-log increments (8 points) starting at 0.1 mM. After a 10 minute pre-incubation, 50 μL of enzyme solution containing microsomes isolated from CHO cells overexpressing human 11β-HSD1 (10-20 μg/ml of total protein) was added, and the plates were incubated for 90 minutes at room temperature. The reaction was stopped by adding 50 μl of the SPA beads suspension containing 10 μM 18β-glycyrrhetinic acid, 5 mg/ml protein A coated YSi SPA beads (GE Healthcare) and 3.3 μg/ml of anti-cortisol antibody (East Coast Biologics) in Superblock buffer (Bio-Rad). The plates were shaken for 120 minutes at room temperature, and the SPA signal corresponding to [^3H]cortisol was measured on a Microbeta plate reader.

T1 sequence (P28845 whole entry): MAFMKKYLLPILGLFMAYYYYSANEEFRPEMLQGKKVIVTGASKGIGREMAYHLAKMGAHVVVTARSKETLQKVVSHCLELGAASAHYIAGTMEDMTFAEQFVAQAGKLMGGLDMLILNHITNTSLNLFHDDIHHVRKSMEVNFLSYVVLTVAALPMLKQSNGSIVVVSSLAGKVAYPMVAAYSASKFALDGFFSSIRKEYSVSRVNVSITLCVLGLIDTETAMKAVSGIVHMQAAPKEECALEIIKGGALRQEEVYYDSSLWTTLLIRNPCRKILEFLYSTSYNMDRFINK

For `CC(C)(C)N1CCC(CCCO)(c2ccccc2)OC1=O` (single isomer, unassigned) [EXAMPLE 8 Isomer 1, 3-tert-butyl-6-(3-hydroxypropyl)-6-phenyl-1,3-oxazinan-2-one], the half-inhibitory concentration (IC50) (usually the concentration at which inhibition is half-maximal) is less than 100 nM. Moreover, the “Average % inhibition at 100 nM” value (0.1 µM) amounted to 84.0%.
For `CC(C)(C)N1CCC(CCCO)(c2ccccc2)OC1=O` (single isomer, unassigned) [EXAMPLE 8 Isomer 2, 3-tert-butyl-6-(3-hydroxypropyl)-6-phenyl-1,3-oxazinan-2-one] the same measures were greater than 100 nM and 22.1%.
For `CC(C)(C)N1CCC(CCCO)(c2ccc(F)cc2)OC1=O` (single isomer, unassigned) [EXAMPLE 9 Isomer 1, 3-tert-butyl-6-(4-fluorophenyl)-6-(3-hydroxypropyl)-1,3-oxazinan-2-one] the same measures were less than 100 nM and 74.7%.
For `CC(C)(C)N1CCC(CCCO)(c2ccc(F)cc2)OC1=O` (single isomer, unassigned) [EXAMPLE 9 Isomer 2, 3-tert-butyl-6-(4-fluorophenyl)-6-(3-hydroxypropyl)-1,3-oxazinan-2-one] the same measures were greater than 100 nM and 25.45%.
On to `C[C@H](N1CCC(CCCO)(c2ccccc2)OC1=O)C(C)(C)O` (single isomer, unassigned) [EXAMPLE 10 Isomer 1], for which the concentration for half-maximal inhibition (IC50) is less than 100 nM. The “Average % inhibition at 100 nM” value (0.1 µM) is listed as 66.8%.
The matching figures for `C[C@H](N1CCC(CCCO)(c2ccccc2)OC1=O)C(C)(C)O` (single isomer, unassigned) [EXAMPLE 10 Isomer 2]: greater than 100 nM and 13.4%.
Consider `C=CCC1(c2ccccc2)CCN([C@@H](C)C(C)(C)O)C(=O)O1` (single isomer, unassigned) [EXAMPLE 12 Isomer 1], for which 0.1 µM produced 47.2% inhibition and the half-maximal inhibitory concentration (IC50) was greater than 100 nM.
As to `C=CCC1(c2ccccc2)CCN([C@@H](C)C(C)(C)O)C(=O)O1` (single isomer, unassigned) [EXAMPLE 12 Isomer 2], the IC50 was less than 100 nM. Also, for the setting “0.1 µM”, the “Average % inhibition at 100 nM” value was 53.9%.
`C[C@H](N1CC[C@](CCO)(c2ccc(F)cc2)OC1=O)C(C)(C)C` (single isomer, unassigned; isomer 1) [EXAMPLE 1 Isomer 1]: the “Average % inhibition at 100 nM” value is 94.4% and the IC50 was less than 100 nM.
For `C[C@H](N1CC[C@@](CCO)(c2ccc(F)cc2)OC1=O)C(C)(C)C` (single isomer, unassigned; isomer 2) [EXAMPLE 1 Isomer 2] the same measures were 36.5% and less than 100 nM.
On to `C[C@H](N1CC[C@](CCCO)(c2ccc(F)cc2)OC1=O)C(C)(C)C` [EXAMPLE 2], for which the inhibition – broadly, the relative decrease from the control value, in per cent – at 0.1 µM is 98.6% and the 50% inhibitory concentration (IC50) is less than 100 nM.
`C[C@H](N1CC[C@](CCCO)(c2ccccc2)OC1=O)C(C)(C)C` [EXAMPLE 3 Isomer 1]: the inhibition at 0.1 µM was 94% and the IC50 is less than 100 nM.
For the compound `C[C@H](N1CC[C@@](CCCO)(c2ccccc2)OC1=O)C(C)(C)C` [EXAMPLE 3 Isomer 2, (S)-3-((S)-3,3-dimethylbutan-2-yl)-6-(3-hydroxypropyl)-6-phenyl-1,3-oxazinan-2-one], 0.1 µM produced 58.8% inhibition and the IC50 is less than 100 nM.
For `C[C@H](N1CC[C@](CCC(N)=O)(c2ccc(F)cc2)OC1=O)C(C)(C)C` [EXAMPLE 4, 3-((R)-3-((S)-3,3-dimethylbutan-2-yl)-6-(4-fluorophenyl)-2-oxo-1,3-oxazinan-6-yl)propanamide] the same measures were 91.8% and less than 100 nM.
The matching figures for `C[C@H](N1CC[C@](CCNS(C)(=O)=O)(c2ccc(F)cc2)OC1=O)C(C)(C)C` [EXAMPLE 5, N-(2-((S)-3-((S)-3,3-dimethylbutan-2-yl)-6-(4-fluorophenyl)-2-oxo-1,3-oxazinan-6-yl)ethyl)methanesulfonamide]: 91% and less than 100 nM.
For `C[C@H](N1CC[C@](CCCNS(C)(=O)=O)(c2ccc(F)cc2)OC1=O)C(C)(C)C` [EXAMPLE 6, N-(3-((R)-3-((S)-3,3-dimethylbutan-2-yl)-6-(4-fluorophenyl)-2-oxo-1,3-oxazinan-6-yl)propyl)methanesulfonamide] the same measures were 95.9% and less than 100 nM.
In the case of `C[C@H](N1CC[C@](CCO)(c2ccc(F)cc2)NC1=O)C(C)(C)C` [EXAMPLE 7, (S)-1-((S)-3,3-dimethylbutan-2-yl)-4-(4-fluorophenyl)-4-(2-hydroxyethyl)tetrahydropyrimidin-2(1H)-one], 0.1 µM produced 93.3% inhibition and the concentration for half-maximal inhibition (IC50) is less than 100 nM.
With `C[C@H](N1CC[C@](CCCO)(c2ccc(F)cc2)NC1=O)C(C)(C)C` [EXAMPLE 11, (R)-1-((S)-3,3-dimethylbutan-2-yl)-4-(4-fluorophenyl)-4-(3-hydroxypropyl)tetrahydropyrimidin-2(1H)-one], 0.1 µM produced 97% inhibition and the half-maximal inhibitory concentration (IC50) is less than 100 nM.
